One series concerns Bacillus subtilis. Put plainly: Antimicrobial activity against Bacillus subtilis ATCC 6633 incubated for 16 to 48 hrs. In kind it is functional.
Another series concerns Micrococcus luteus. Put plainly: Antimicrobial activity against Micrococcus luteus NRRL B-287 incubated for 16 to 48 hrs. The class given is functional.
A further series deals with Staphylococcus aureus. Kind of series: Antimicrobial activity against Staphylococcus aureus ATCC 6538 incubated for 16 to 48 hrs. In kind it is functional.
A further series relates to Escherichia coli. Kind of series: Antimicrobial activity against Escherichia coli NRRL B-3708 incubated for 16 to 48 hrs. The class given is functional.
The test system of a further series is Ambystoma mexicanum. Put plainly: Toxicity in axolotl at <=10 uM by embryo tail regeneration assay. In kind it is organism-based. Particulars: in vivo.
In the next series the test system is PC-3. Put plainly: Cytotoxicity in human PC3 cells assessed as reduction in cell viability incubated for 48 hrs. In kind it is functional, cell-based. The settings on record: PC-3, 48 h.
The subject of another series is Mycolicibacterium aurum. Kind of series: Antimicrobial activity against Mycobacterium aurum ATCC 23366 incubated for 16 to 48 hrs. In kind it is functional.
A further series concerns Salmonella enterica. Kind of series: Antimicrobial activity against Salmonella enterica ATCC 10708 incubated for 16 to 48 hrs. In kind it is functional.
The subject of the next series is A549. Put plainly: Cytotoxicity in human A549 cells assessed as reduction in cell viability incubated for 48 hrs. Particulars: A549, 48 h. The class given is functional, cell-based.
For the next series, the system named is Saccharomyces cerevisiae. Kind of series: Antimicrobial activity against Saccharomyces cerevisiae ATCC 204508 incubated for 16 to 48 hrs. The class given is functional.

SMILES strings stand for the structures. Values after ≈ are worked out from the molar mass of the structure shown.

By MIC is commonly meant the lowest concentration found to suppress growth. High values mean a need for much substance, low ones inhibition by little substance. In general, IC50 refers to the concentration that gives 50% inhibition.

Turning to `O=C(O)C1(O)O[C@@H]2[C@@H](Cc3nc4c(O)cccc4nc3[C@@H]2O)[C@H]1c1c[nH]c2ccccc12` (stereo not given in full), the MIC against Bacillus subtilis, against Micrococcus luteus, in the series with Staphylococcus aureus, against Escherichia coli, against Mycolicibacterium aurum and against Salmonella enterica was greater than 120 µM in each case. Further, the minimum inhibitory concentration (MIC) with Saccharomyces cerevisiae is greater than 120 µM. Further, the Activity entry in the series on Ambystoma mexicanum is on record as “Non-Toxic”. Moreover, the IC50 in the series on PC-3 and in the series on A549 was greater than 50 µM throughout.
`NC(=O)c1cccc2nc3c4c(ccc3nc12)[C@H]1c2nc3c(O)cccc3nc2C[C@@H]4[C@@H]1O`: the minimum inhibitory concentration (MIC) in the series on Bacillus subtilis is 7.5 µM (≈ 3.27 µg/mL); in the series on Micrococcus luteus, 7.5 µM (≈ 3.27 µg/mL); in the series on Staphylococcus aureus, 4 µM (≈ 1.74 µg/mL); against Escherichia coli, greater than 120 µM; against Mycolicibacterium aurum it was 30 µM (≈ 13.1 µg/mL); in the series on Salmonella enterica, greater than 120 µM. The minimal inhibitory concentration (MIC) in the series with Saccharomyces cerevisiae was greater than 120 µM. Further, the Activity result in the series with Ambystoma mexicanum was “Non-Toxic”. For the same compound, the IC50 in the series with PC-3 was 4.7 µM; in the series with A549 it was 2.4 µM.
Consider `O=C(O)c1cc2c(c3nc4cccc(O)c4nc13)[C@@H]1Cc3nc4cccc(O)c4nc3[C@@](O)(C1)O2`, for which the MIC with Bacillus subtilis, in the series with Micrococcus luteus, with Staphylococcus aureus, against Escherichia coli, against Mycolicibacterium aurum and against Salmonella enterica was greater than 120 µM each time. Besides, the MIC against Saccharomyces cerevisiae is greater than 120 µM. The Activity entry in the series on Ambystoma mexicanum was “Non-Toxic”. Moreover, the IC50 in the series on PC-3 and in the series with A549 was greater than 50 µM in each case.
As to `O=C(O)C1(O)O[C@@H]2[C@@H](Cc3nc4c(O)cccc4nc3[C@H]2O)[C@H]1c1c[nH]c2ccccc12` (stereo not given in full), the MIC in the series with Bacillus subtilis, with Micrococcus luteus, in the series with Staphylococcus aureus, against Escherichia coli, with Mycolicibacterium aurum and with Salmonella enterica was greater than 120 µM each time. Besides, the MIC against Saccharomyces cerevisiae was greater than 120 µM. Also, in the series with Ambystoma mexicanum, the Activity entry is on record as “Non-Toxic”. The 50% inhibitory concentration (IC50) with PC-3 and in the series with A549 was greater than 50 µM in each case.
On to `O=C(O)c1ccc(O)c2nc3c4c(ccc3nc12)[C@@H]1Cc2nc3cccc(O)c3nc2[C@H](O4)[C@H]1O`, for which the MIC against Bacillus subtilis, with Micrococcus luteus, in the series with Staphylococcus aureus, against Escherichia coli, with Mycolicibacterium aurum and in the series on Salmonella enterica was greater than 120 µM throughout. In addition, the minimal inhibitory concentration (MIC) against Saccharomyces cerevisiae was greater than 120 µM. Besides, in the series on Ambystoma mexicanum, the Activity result is reported as “Non-Toxic”. The 50% inhibitory concentration (IC50) with PC-3 and in the series with A549 was greater than 50 µM in each case.
Regarding `O=C(O)c1cccc2nc3c4c(ccc3nc12)[C@H]1c2nc3c(O)cccc3nc2C[C@@H]4[C@H]1O`, the MIC against Bacillus subtilis, in the series on Micrococcus luteus, with Staphylococcus aureus, against Escherichia coli, against Mycolicibacterium aurum and against Salmonella enterica was greater than 120 µM in each case. Besides, the MIC in the series on Saccharomyces cerevisiae is greater than 120 µM. The Activity entry in the series with Ambystoma mexicanum was “Non-Toxic”. The IC50 in the series on PC-3 and with A549 was greater than 50 µM each time.
Consider `O=C(O)C1(O)O[C@@H]2[C@@H](Cc3nc4c(O)cccc4nc3[C@@H]2O)[C@H]1c1ccc(O)cc1` (stereo not given in full), for which the MIC against Bacillus subtilis, with Micrococcus luteus, in the series with Staphylococcus aureus, against Escherichia coli, in the series on Mycolicibacterium aurum and in the series with Salmonella enterica was greater than 120 µM each time. This compound also had an MIC with Saccharomyces cerevisiae greater than 120 µM. The Activity result in the series with Ambystoma mexicanum is given as “Non-Toxic”. For the same compound, the IC50 with PC-3 and in the series on A549 was greater than 50 µM each time.

Source of the values: ChEMBL document CHEMBL4392871, “Baraphenazines A-G, Divergent Fused Phenazine-Based Metabolites from a Himalayan Streptomyces” (J Nat Prod, 2019).
